Data taken from patent US20110236886A1, “PATHOGENICITY DETERMINANTS WHICH CAN BE USED AS TARGETS FOR DEVELOPING MEANS FOR PREVENTING AND CONTROLLING BACTERIAL INFECTIONS AND/OR SYSTEMIC DISSEMINATION” (priority 2002, published 2011).

Key:
[1] = test system: S. agalactiae NEM316; assay: Disk diffusion sensitivity to cationic antimicrobial peptides, wild type strain; assay type: cell-based, Streptococcus agalactiae; conditions: blood agar plates, 18 hours at 37° C., disc content colistin 50 μg, polymixin B 10 μg
Method: (§1) The sensitivity of wild type S. agalactiae NEM316 and DltD mutant to cationic antimicrobial peptides was measured by using a disk diffusion methods. The 2 strains were grown on blood agar plates and incubated for 18 hours at 37° C. Each strain was tested using colistin (50 μg) and polymixin (10 μg) disks. Sensitivity or resistance of NEM316 strain and the DltD mutant to each compound was determined by the size of the growth inhibition area around disk.

[2] = test system: DltD mutant of S. agalactiae NEM316; assay: Disk diffusion sensitivity to cationic antimicrobial peptides, DltD mutant; assay type: cell-based, Streptococcus agalactiae; conditions: for Inhibition area (mm) Mutant DltD: blood agar plates, 18 hours at 37° C., disc content colistin 50 μg, polymixin B 10 μg; for Sensitivity of the DltD mutant to the peptide compared with wild type: result in words
Method: as §1

Substance | Inhibition area (mm) NEM316 [1] | Inhibition area (mm) Mutant DltD [2] | Sensitivity of the DltD mutant to the peptide compared with wild type [2]
colistin | 0 mm | 14 mm | increased sensitivity
polymyxin B [Polymixin B] | 0 mm | 14 mm | increased sensitivity
